Experimental data as given in patent US10881668B2, “Acetamide thienotriazolodiazepines and uses thereof” (Dana-Farber Cancer Institute, Inc., priority 2015, dated 2021).
Where two headings read alike, the source gives them in different places.

Columns and labels:
[1] = Pharmacokinetics in male CD1 mice, oral administration; conditions: for F: oral 10 mg/kg (IV 5 mg/kg)
Experimental: (§4) Pharmacokinetic parameters were determined by administration of a candidate bromodomain inhibitor to male CD1 mice. Intravenous doses were delivered at 5 mg/kg, and oral doses at 10 mg/kg (N=3). […] The compound concentration in mouse blood was monitored over 24-hour time period to check the compound concentration in blood at 5 min, 30 min, 1 hour, 2 hours, 6 hours, 12 hours, and 24 hour via a series bleeding.

BRDT(1) = BRDT(1) (Homo sapiens (Human), UniProt Q58F21); assay: AlphaScreen acetyl-histone binding assay, BRDT(1); conditions: H4K5acK8acK12acK16ac peptide
Experimental: (§1) The IC50 values of the compounds were determined by ALPHASCREENING assays for BRD4 and BRDT protein. NMC797 cell line is a BRD4 dependant NUT midline carcinoma line.
(§2) Acetyl-Histone Binding Assay.
(§3) Assays were performed as described previously with minor modifications from the manufacturer's protocol (PerkinElmer, USA). All reagents were diluted in 50 mM HEPES, 100 mM NaCl, 0.1% BSA, pH 7.4 supplemented with 0.05% CHAPS and allowed to equilibrate to room temperature prior to addition to plates. A 24-point 1:2 serial dilution of the ligands was prepared over the range of 150-0 μM and 4 μl transferred to low-volume 384-well plates (PROXIPLATE™-384 Plus, PerkinElmer, USA), followed by 4 μl of HIS-tagged protein (BRD4/1, 250 nM, BRD4/2 and CREBBP, 2000 nM). […] Plates were sealed and incubated for a further 30 minutes, before the addition of 4 μl of streptavidin-coated donor beads (25 μg/ml) and 4 μl nickel chelate acceptor beads (25 μg/ml) under low light conditions. Plates were foil-sealed to protect from light, incubated at room temperature for 60 minutes and read on a PHERASTAR FS plate reader (BMG Labtech, Germany) using an ALPHASCREEN 680 excitation/570 emission filter set. IC50 values were calculated in Prism 5 ([…] Software, USA) after normalization against corresponding DMSO controls and are given as the final concentration of compound in the 20 μl reaction volume.

[2] = Pharmacokinetics in male CD1 mice, IV administration; conditions: whole blood; for AUC(0-inf) / AUC(0-t) / MRT inf / Vd / clearance / half-life: male, CD1, mouse, iv, 5 mg/kg
Experimental: as §4

[3] = tested on: NMC797 cell line (BRD4 dependant NUT midline carcinoma line); assay: Cell proliferation assay (ATP content), NMC797; type: cell-based; conditions: 48-hour incubation
Experimental: as §1
Cell Proliferation Assay.
Cells were seeded into white, 384-well microtiter plates (Nunc) at 500 cells per well in a total volume of 50 μL media. The 797, TT, and TE10 cells were grown in DMEM containing 1% penicillin/streptomycin and 10% FBS. The Per403 cells were grown in DMEM containing 1% penicillin/streptomycin and 20% FBS. Compounds were delivered to microtiter assay plates by robotic pin transfer (PerkinElmer JANUS equipped with a V&P Scientific 100 nL pin tool). Following a 48-hour incubation at 37° C., cells were lysed and wells were assessed for total ATP content using a commercial proliferation assay (Cell TITERGLO; Promega). Replicate measurements were analyzed with respect to dose and estimates of IC50 were calculated by logistic regression ([…] PRISM).

BRD4(1) = BRD4(1) (Homo sapiens (Human), UniProt O60885); assay: AlphaScreen acetyl-histone binding assay, BRD4(1); conditions: H4K5acK8acK12acK16ac peptide
Experimental: as §1, §2, §3

[4] = male, CD1, mouse, in vivo
Experimental: as §4

in vivo = conditions: male, CD1, mouse, iv, 1 mg/kg
Experimental: as §4

[5] = male, CD1, mouse, whole blood, po, 10 mg/kg
[6] = male CD1 mice, oral 10 mg/kg, whole blood, N=3

Cc1sc2c(c1C)C(c1ccc(Cl)cc1)=N[C@@H](CC(=O)NC[C@H](C)O)c1nnc(C)n1-2 [Compound 501] gave an F ([1]; male CD1 mice, N=3) of 53.7%, an AUC(0-inf) [1, 5] of 2570 ng·h/mL and an AUC(0-t) [1, 5] of 2520 ng·h/mL. The Cmax [1, 5] was 1260 ng/mL, the Tmax [1, 5] was 0.417 h and the half-life [1, 5] was 1.54 h. For the same molecule, the IC50 (BRDT(1)) was 82 nM, the AUC(0-inf) [2] was 2390 ng·h/mL and the AUC(0-t) [2] was 2380 ng·h/mL. For the same molecule, the MRT inf [2] was 0.718 h, the Vd [2] was 1.54 L/kg and the clearance [2] was 36.7 mL/min/kg. The half-life [2] was 1.51 h and the IC50 ([3]; NMC-797, NMC797 cells) was 30 nM.

With Cc1sc2c(c1C)C(c1ccc(Cl)cc1)=N[C@@H](CC(=O)NC[C@@H](C)O)c1nnc(C)n1-2 [Compound 502] the F ([1]; male CD1 mice, N=3) was 53.4%, the AUC(0-inf) [1, 5] was 3160 ng·h/mL and the AUC(0-t) [1, 5] was 3100 ng·h/mL. For the same molecule, the Cmax [1, 5] was 1430 ng/mL, the Tmax [1, 5] was 0.5 h and the half-life [1, 5] was 1.37 h. The IC50 (BRDT(1)) was 61 nM, the AUC(0-inf) [2] was 2960 ng·h/mL and the AUC(0-t) [2] was 2940 ng·h/mL. For the same molecule, the MRT inf [2] was 0.882 h, the Vd [2] was 1.48 L/kg and the clearance [2] was 29.5 mL/min/kg. It also gave a half-life [2] of 1.06 h and an IC50 ([3]; NMC-797, NMC797 cells) of 29 nM.

For Cc1sc2c(c1C)C(c1ccc(Cl)cc1)=N[C@@H](CC(=O)NCC(C)(C)O)c1nnc(C)n1-2 [Compound 503], the IC50 (BRD4(1)) was 44 nM, the IC50 (BRDT(1)) was 89 nM and the IC50 ([3]; NMC-797, NMC797 cells) was 42 nM.

Cc1sc2c(c1C)C(c1ccc(Cl)cc1)=N[C@@H](CC(=O)NCC(F)F)c1nnc(C)n1-2 [Compound 504] gave an IC50 (BRDT(1)) of 69 nM and an IC50 ([3]; NMC-797, NMC797 cells) of 54 nM.

Cc1sc2c(c1C)C(c1ccc(Cl)cc1)=N[C@@H](CC(=O)NCCC(F)F)c1nnc(C)n1-2 [Compound 505] showed an IC50 (BRDT(1)) of 75 nM and an IC50 ([3]; NMC-797, NMC797 cells) of 93 nM.

For Cc1sc2c(c1C)C(c1ccc(Cl)cc1)=N[C@@H](CC(=O)NCC1CCN(CCN(C)C)CC1)c1nnc(C)n1-2 [Compound 601], the F [4] was 4% and the half-life (in vivo) was 11.7 h.

Molecule Cc1sc2c(c1C)C(c1ccc(Cl)cc1)=N[C@@H](CC(=O)NCCCN1CCC(N3CCCCC3)CC1)c1nnc(C)n1-2 [Compound 602] has an F [4] of 2% and a half-life (in vivo) of 21 h.

With Cc1sc2c(c1C)C(c1ccc(Cl)cc1)=N[C@@H](CC(=O)N1CCC(N3CCCCC3)CC1)c1nnc(C)n1-2 [Compound 603] the F [4] was 20% and the half-life (in vivo) was 1 h.

Cc1sc2c(c1C)C(c1ccc(Cl)cc1)=N[C@@H](CC(=O)NCCCN1CCCC1)c1nnc(C)n1-2 [Compound 604] showed an F [4] of 7% and a half-life (in vivo) of 2 h.

With Cc1sc2c(c1C)C(c1ccc(Cl)cc1)=N[C@@H](CC(=O)N1CCn3c(nnc3C(F)(F)F)C1)c1nnc(C)n1-2 [Compound 605] the F [4] was 6% and the half-life (in vivo) was 0.5 h.

Cc1sc2c(c1C)C(c1ccc(Cl)cc1)=N[C@@H](CC(=O)OC(C)(C)C)c1nnc(C)n1-2 [JQ1, reference compound] gave an AUCINF [1, 6] of 2090 ng·h/mL, an AUClast [1, 6] of 2040 ng·h/mL and a Cmax [1, 6] of 1180 ng/mL. The Tmax [1, 6] was 0.250 h, the AUCINF ([2]; male CD1 mice, IV 5 mg/kg, N=3) was 2130 ng·h/mL and the AUClast ([2]; male CD1 mice, IV 5 mg/kg, N=3) was 2130 ng·h/mL. It also gave a CL ([2]; male CD1 mice, IV 5 mg/kg, N=3) of 39.2 mL/min/kg, an MRTINF ([2]; male CD1 mice, IV 5 mg/kg, N=3) of 0.861 h and an IC50 ([3]; NMC797 cells) of 21 nM.
